{"source": "patent US12338203B2", "about": "(TAISHO PHARMACEUTICAL CO., LTD., priority 2019, dated 2025)"}
{"molecular_target": "T1, human LPAR1 (Homo sapiens, UniProt Q92633)", "T1 construct": "expressed in transfected cells", "T1 sequence (Q92633 whole entry)": "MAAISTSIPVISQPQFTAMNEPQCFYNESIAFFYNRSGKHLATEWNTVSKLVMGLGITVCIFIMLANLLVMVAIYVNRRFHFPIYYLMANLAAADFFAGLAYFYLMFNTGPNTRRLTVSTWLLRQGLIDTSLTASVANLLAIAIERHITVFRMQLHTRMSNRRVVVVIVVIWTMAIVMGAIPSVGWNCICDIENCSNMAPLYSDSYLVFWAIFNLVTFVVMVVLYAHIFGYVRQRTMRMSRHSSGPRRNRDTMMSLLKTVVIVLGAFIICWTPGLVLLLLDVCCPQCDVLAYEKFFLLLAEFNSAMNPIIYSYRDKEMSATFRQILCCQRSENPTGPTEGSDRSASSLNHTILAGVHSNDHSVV", "assay": "Test Example 1: antagonism against response of LPA-induced increase in intracellular Ca2+ concentration in RH7777 cells stably expressing human LPAR1", "format": "cell-based", "details": "RH7777 cells stably expressing human LPAR1; Fluo-4 fluorescence, FDSS6000; read-out: IC50 value (concentration producing 50% antagonism against response of LPA-induced increase in intracellular Ca2+ concentration) (converted)", "how_it_was_run": "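RH7777 cells stably transfected with human LPAR1 were preincubated with test compound 30 min at 37 °C in HBSS/20 mM HEPES/probenecid/0.05% BSA buffer, pH 7.4, then LPA-stimulated.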", "units": {"IC50": "nM"}}
{"molecule": "CCOc1cc(C(C)N(CCOCc2ccccc2)C(=O)NC2(C(=O)O)CC(OC)C2)cc(OCC)c1C1CC1", "note": "(stereo not shown) [Example 5-204]", "IC50": 0.882}
{"molecule": "CCOc1cc(C(C)N(CCOCc2ccccc2)C(=O)NC2(C(=O)O)CC(OC)C2)c(Cl)c(OCC)c1C(C)=O", "note": "(stereo not shown) [Example 5-205]", "IC50": 2.74}
{"molecule": "CCOc1cc(C(C)N(CCOCc2ccccc2)C(=O)NC2(C(=O)O)CC(OC)C2)c(Cl)c(OCC)c1C1CC1", "note": "(stereo not shown) [Example 5-206]", "IC50": 0.853}
{"molecule": "CCOc1cc(C(C)N(CCOC(C)c2ccccc2)C(=O)NC2(C(=O)O)CC(OC)C2)c(Cl)c(OCC)c1C1CC1", "note": "(stereo not shown) [Example 5-207]", "IC50": 1.36}
{"molecule": "CCOc1cc(C(C)N(CCOC(C)c2ccccc2)C(=O)NC2(C(=O)O)CC(OC)C2)c(Cl)c(OCC)c1C(C)=O", "note": "(stereo not shown) [Example 5-208]", "IC50": 3.5}
{"molecule": "CCOc1cc(C(C)N(CCCCc2ccccc2)C(=O)NC2(C(=O)O)CC(OCC)C2)c(Cl)c(OCC)c1C(C)=O", "note": "(stereo not shown) [Example 5-209]", "IC50": 2.75}
{"molecule": "CCOc1cc(C(C)N(CCOCc2ccccc2)C(=O)NC2(C(=O)O)CC(OCC)C2)cc(OCC)c1C1CC1", "note": "(stereo not shown) [Example 5-211]", "IC50": 1.1}
{"molecule": "CCOc1cc(C(C)N(CCOCc2ccccc2)C(=O)NC2(C(=O)O)CC(OCC)C2)c(Cl)c(OCC)c1C(C)=O", "note": "(stereo not shown) [Example 5-212]", "IC50": 1.98}
{"molecule": "CCOc1cc(C(C)N(CCOCc2ccccc2)C(=O)NC2(C(=O)O)CC(OCC)C2)c(Cl)c(OCC)c1C1CC1", "note": "(stereo not shown) [Example 5-213]", "IC50": 0.847}
{"molecule": "CCOc1cc(C(C)N(CCOCc2ccccc2)C(=O)N[C@]2(C(=O)O)C[C@@H](OCC)C2)c(C)c(OCC)c1C(C)=O", "note": "(stereo partly shown) [Example 5-214]", "IC50": 1.92}
{"molecule": "CCOc1cc(C(C)N(CCOCc2ccccc2)C(=O)NC2(C(=O)O)CC(OCC)C2)c(C)c(OCC)c1C1CC1", "note": "(stereo not shown) [Example 5-215]", "IC50": 1.01}
{"molecule": "CCOc1cc(C(C)N(CCO[C@@H](C)c2ccccc2)C(=O)NC2(C(=O)O)CC(OCC)C2)c(Cl)c(OCC)c1C1CC1", "note": "(stereo partly shown) [Example 5-216]", "IC50": 2.56}
{"molecule": "CCOc1cc(C(C)N(CCO[C@@H](C)c2ccccc2)C(=O)NC2(C(=O)O)CC(OCC)C2)c(C)c(OCC)c1C1CC1", "note": "(stereo partly shown) [Example 5-217]", "IC50": 1.65}
{"molecule": "CCOc1cc(C(C)N(CCO[C@@H](C)c2ccccc2)C(=O)N[C@]2(C(=O)O)C[C@@H](OCC)C2)c(Cl)c(OCC)c1C(C)=O", "note": "(stereo partly shown) [Example 5-218]", "IC50": 1.99}
{"molecule": "CCOc1cc(C(C)N(CCOCc2ccccc2)C(=O)NC2(C(=O)O)CC(OCC)C2)cc(OCC)c1C1CC1", "note": "(stereo not shown) [Example 5-219]", "IC50": 0.813}
{"molecule": "CCOc1cc(C(C)N(CCOCc2ccccc2)C(=O)NC2(C(=O)O)CC(OCC)C2)c(Cl)c(OCC)c1C(C)=O", "note": "(stereo not shown) [Example 5-220]", "IC50": 2.13}
{"molecule": "CCOc1cc(C(C)N(CCOCc2ccccc2)C(=O)NC2(C(=O)O)CC(OCC)C2)c(Cl)c(OCC)c1C1CC1", "note": "(stereo not shown) [Example 5-221]", "IC50": 0.695}
{"molecule": "CCOc1cc(C(C)N(CCO[C@@H](C)c2ccccc2)C(=O)NC2(C(=O)O)CC(OCC)C2)c(Cl)c(OCC)c1C1CC1", "note": "(stereo partly shown) [Example 5-222]", "IC50": 1.79}
{"molecule": "CCOc1cc(C(C)N(CCO[C@@H](C)c2ccccc2)C(=O)NC2(C(=O)O)CC(OCC)C2)c(Cl)c(OCC)c1C(C)=O", "note": "(stereo partly shown) [Example 5-223]", "IC50": 2.08}
{"molecule": "CCOc1cc(C(C)N(CCOCc2ccccc2)C(=O)NC2(C(=O)O)CCOCC2)cc(OCC)c1C1CC1", "note": "(stereo not shown) [Example 5-224]", "IC50": 0.949}
{"molecule": "CCOc1cc(C(C)N(CCOCc2ccccc2)C(=O)NC2(C(=O)O)CCOCC2)c(Cl)c(OCC)c1C1CC1", "note": "(stereo not shown) [Example 5-225]", "IC50": 0.809}
{"molecule": "CCOc1cc(C(C)N(CCOCc2ccccc2)C(=O)NC2(C(=O)O)CCOCC2)c(C)c(OCC)c1C(C)=O", "note": "(stereo not shown) [Example 5-226]", "IC50": 4}
{"molecule": "CCOc1cc(C(C)N(CCOCc2ccccc2)C(=O)NC2(C(=O)O)CCOCC2)c(C)c(OCC)c1C1CC1", "note": "(stereo not shown) [Example 5-227]", "IC50": 0.851}
{"molecule": "CCOc1cc(C(C)N(CCCCc2ccccc2)C(=O)NC2(C(N)=O)CCCC2)cc(OCC)c1C", "note": "(stereo not shown) [Example 6-1, 1-({[1-(3,5-Diethoxy-4-Methylphenyl)Ethyl](4-Phenylbutyl) Carbamoyl}Amino)Cyclopentane-1-Carboxamide]", "IC50": 1890}
{"molecule": "CCOc1cc(OCC)cc(C(C)N(CCCCc2ccccc2)C(=O)NC2(C(=O)OC)CCCC2)c1", "note": "(stereo not shown) [Example 6-2, Methyl 1-({[1-(3,5-Diethoxyphenyl)Ethyl](4-Phenylbutyl) Carbamoyl}Amino)Cyclopentane-1-Carboxylate]", "IC50": 3760}
{"molecule": "CCOc1cc([C@@H](C)N(CCO[C@@H](C)c2ccccc2)C(=O)NC2(C(=O)OC)CC2)c(Cl)c(OCC)c1C(C)=O", "note": "[Example 6-3, Methyl 1-[([(1R)-1-(4-Acetyl-2-Chloro-3,5-Diethoxyphenyl)Ethyl]{2-[(1S)-1-Phenylethoxy]Ethyl}Carbamoyl)Amino]Cyclopropane-1-Carboxylate]", "IC50": 672}
{"molecule": "CCOc1cc(C(C)N(CCO[C@@H](C)c2ccccc2)C(=O)NC2(C(=O)OC)CC(OCC)C2)cc(OCC)c1C(C)=O", "note": "(stereo partly shown) [Example 6-4]", "IC50": 344}
{"molecule": "CCOc1cc(C(C)N(CCO[C@@H](C)c2ccccc2)C(=O)NC2(C(=O)OC)CC(OCC)C2)c(Cl)c(OCC)c1C(C)=O", "note": "(stereo partly shown) [Example 6-5]", "IC50": 272}
{"molecule": "CCOc1cc(C(C)N(CCO[C@@H](C)c2ccccc2)C(=O)NC2(C(=O)OC)CC(F)(F)C2)cc(OCC)c1C(C)=O", "note": "(stereo partly shown) [Example 6-6]", "IC50": 435}
{"molecule": "CCOc1cc(C(C)N(CCO[C@@H](C)c2ccccc2)C(=O)NC2(C(=O)OC)CC(F)(F)C2)c(Cl)c(OCC)c1C(C)=O", "note": "(stereo partly shown) [Example 6-7]", "IC50": 443}
{"molecule": "CCOC(=O)C1(NC(=O)N(CCO[C@@H](C)c2ccccc2)C(C)c2cc(OCC)c(C(C)=O)c(OCC)c2Cl)CC1", "note": "(stereo partly shown) [Example 6-8]", "IC50": 2840}
{"molecule": "CCOC(=O)C1(NC(=O)N(CCO[C@@H](C)c2ccccc2)C(C)c2cc(OCC)c(C(C)=O)c(OCC)c2)CC(OCC)C1", "note": "(stereo partly shown) [Example 6-9]", "IC50": 1010}
{"molecule": "CCOC(=O)C1(NC(=O)N(CCO[C@@H](C)c2ccccc2)C(C)c2cc(OCC)c(C(C)=O)c(OCC)c2Cl)CC(OCC)C1", "note": "(stereo partly shown) [Example 6-10]", "IC50": 1040}
{"molecule": "CCOC(=O)C1(NC(=O)N(CCO[C@@H](C)c2ccccc2)C(C)c2cc(OCC)c(C(C)=O)c(OCC)c2Cl)CC(F)(F)C1", "note": "(stereo partly shown) [Example 6-12]", "IC50": 1270}
{"molecule": "CCOc1cc(C(C)N(CCO[C@@H](C)c2ccccc2)C(=O)NC2(C(=O)OC(C)(C)C)CC2)c(Cl)c(OCC)c1C(C)=O", "note": "(stereo partly shown) [Example 6-13]", "IC50": 3040}
{"molecule": "CCOc1cc(C(C)N(CCO[C@@H](C)c2ccccc2)C(=O)NC2(C(=O)OC(C)(C)C)CC(OCC)C2)cc(OCC)c1C(C)=O", "note": "(stereo partly shown) [Example 6-14]", "IC50": 3530}
{"molecule": "CCOc1cc(C(C)N(CCO[C@@H](C)c2ccccc2)C(=O)NC2(C(=O)OC(C)(C)C)CC(OCC)C2)c(Cl)c(OCC)c1C(C)=O", "note": "(stereo partly shown) [Example 6-15]", "IC50": 3340}
{"molecule": "CCOc1cc(C(C)N(CCO[C@@H](C)c2ccccc2)C(=O)NC2(C(=O)OC(C)(C)C)CC(F)(F)C2)cc(OCC)c1C(C)=O", "note": "(stereo partly shown) [Example 6-16]", "IC50": 13000}
{"molecule": "CCOc1cc(C(C)N(CCO[C@@H](C)c2ccccc2)C(=O)NC2(C(=O)OC(C)(C)C)CC(F)(F)C2)c(Cl)c(OCC)c1C(C)=O", "note": "(stereo partly shown) [Example 6-17]", "IC50": 10200}
{"molecule": "CCOc1cc([C@@H](C)N(CCCCc2ccccc2)C(=O)NC2(C(=O)NS(C)(=O)=O)CC(F)(F)C2)cc(OCC)c1C(C)=O", "note": "[Example 7-1, 1-({[(1R)-1-(4-Acetyl-3,5-Diethoxyphenyl)Ethyl](4-Phenylbutyl) Carbamoyl}Amino)-3,3-Difluoro-N-(Methanesulfonyl)Cyclobutane-1-Carboxamide]", "IC50": 2.75}
{"molecule": "CCOc1cc(C(C)N(CCCCc2ccccc2)C(=O)NC2(C(=O)NS(C)(=O)=O)CC(F)(F)C2)cc(OCC)c1C(C)O", "note": "(stereo not shown) [Example 7-2]", "IC50": 9.55}
{"molecule": "CCOc1cc(C(C)N(CCCCc2ccccc2)C(=O)NC2(C(=O)NS(C)(=O)=O)CCCC2)cc(OCC)c1C", "note": "(stereo not shown) [Example 7-3]", "IC50": 88.3}
{"molecule": "CCOc1cc([C@@H](C)N(CCCCc2ccccc2)C(=O)NC2(C(=O)NS(N)(=O)=O)CC(F)(F)C2)cc(OCC)c1C(C)=O", "note": "[Example 7-4, 1-({[(1R)-1-(4-Acetyl-3,5-Diethoxyphenyl)Ethyl](4-Phenylbutyl) Carbamoyl}Amino)-3,3-Difluoro-N-Sulfamoylcyclobutane-1-Carboxamide]", "IC50": 3.42}
{"molecule": "CCOc1cc(C(C)N(CCCCc2ccccc2)C(=O)NC2(C(=O)NS(=O)(=O)N(C)C)CCCC2)cc(OCC)c1C", "note": "(stereo not shown) [Example 7-5, 1-({[1-(3,5-Diethoxy-4-Methylphenyl)Ethyl](4-Phenylbutyl) Carbamoyl}Amino)-N-(Dimethylsulfamoyl)Cyclopentane-1-Carboxamide]", "IC50": 272}
{"molecule": "CCOc1cc(C(C)N(CCCCc2ccccc2)C(=O)NC2(c3nc(=O)o[nH]3)CCCC2)cc(OCC)c1C", "note": "(stereo not shown) [Example 9-1, N-[1-(3,5-Diethoxy-4-Methylphenyl)Ethyl]-N′-[1-(5-Oxo-2,5-Dihydro-1,2,4-Oxadiazol-3-Yl)Cyclopentyl]-N-(4-Phenylbutyl) Urea]", "IC50": 506}
{"molecule": "CCOc1cc([C@@H](C)N(CCO[C@@H](C)c2ccccc2)C(=O)NC2(c3nn[nH]n3)CC2)cc(OCC)c1C(C)=O", "note": "[Example 10-1, N-[(1R)-1-(4-Acetyl-3,5-Diethoxyphenyl)Ethyl]-N-{2-[(1S)-1-Phenylethoxy]Ethyl}-N′-[1-(2H-Tetrazol-5-Yl)Cyclopropyl]Urea]", "IC50": 3.22}
{"molecule": "CCOc1cc(C(C)N(CCCCc2ccccc2)C(=O)NC(C)(C)c2nn[nH]n2)cc(OCC)c1C(C)=O", "note": "(stereo not shown) [Example 10-2]", "IC50": 2.48}
{"molecule": "CCOc1cc(C(C)N(CCCCc2ccccc2)C(=O)NC2(c3nn[nH]n3)CC2)cc(OCC)c1C(C)=O", "note": "(stereo not shown) [Example 10-3]", "IC50": 1.9}
{"molecule": "CCOc1cc(C(C)N(CCCC(F)(F)c2ccccc2)C(=O)NC2(c3nn[nH]n3)CC2)cc(OCC)c1C(C)=O", "note": "(stereo not shown) [Example 10-4]", "IC50": 2.63}
{"molecule": "CCOc1cc(C(C)N(CCOCc2ccccc2)C(=O)NC2(c3nn[nH]n3)CC2)cc(OCC)c1C(C)=O", "note": "(stereo not shown) [Example 10-5]", "IC50": 2.85}
{"molecule": "CCOc1cc(C(C)N(CCCCc2ccccc2)C(=O)NC2(c3nn[nH]n3)CCC2)cc(OCC)c1C(C)=O", "note": "(stereo not shown) [Example 10-6]", "IC50": 1.88}
{"molecule": "CCOc1cc([C@@H](C)N(CCCCc2ccccc2)C(=O)NC2(c3nnn[nH]3)CC(F)(F)C2)cc(OCC)c1C(C)=O", "note": "[Example 10-7, N-[(1R)-1-(4-Acetyl-3,5-Diethoxyphenyl)Ethyl]-N′-[3,3-Difluoro-1-(1H-Tetrazol-5-Yl)Cyclobutyl]-N-(4-Phenylbutyl) Urea]", "IC50": 2.97}
